Reference: US11111251B2, “Positive allosteric modulators of the muscarinic acetylcholine receptor M1” (Vanderbilt University, priority 2016, dated 2021)

Biological target: T1, human mAChR M1 (Homo sapiens, UniProt P11229)
T1 sequence (P11229 1-460): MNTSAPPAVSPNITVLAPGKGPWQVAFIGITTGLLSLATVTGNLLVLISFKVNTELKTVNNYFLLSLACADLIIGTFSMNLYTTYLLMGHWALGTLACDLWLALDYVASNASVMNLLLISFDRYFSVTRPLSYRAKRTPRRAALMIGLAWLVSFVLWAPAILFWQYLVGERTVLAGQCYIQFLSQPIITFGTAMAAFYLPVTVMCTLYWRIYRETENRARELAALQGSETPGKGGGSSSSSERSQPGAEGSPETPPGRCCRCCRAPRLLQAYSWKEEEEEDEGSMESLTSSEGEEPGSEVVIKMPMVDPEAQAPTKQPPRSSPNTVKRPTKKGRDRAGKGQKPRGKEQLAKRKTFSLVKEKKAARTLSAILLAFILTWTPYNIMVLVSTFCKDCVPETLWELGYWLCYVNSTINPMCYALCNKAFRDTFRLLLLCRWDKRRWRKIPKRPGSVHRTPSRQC
Assay: mAChR M1 cell-based functional assay: calcium mobilization, positive allosteric modulator mode (increase in EC20 acetylcholine response)
Details: Table 2, human M1; for EC50: read-out: Human M1 EC50; for Emax: read-out: Human M1 Emax (%)
Method in brief: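 Calcium-flux assay in CHO-K1 cells stably expressing human M1, loaded with Fluo-4 AM (50 min, 37 °C) and read at 1 Hz. Compound (11-point, 1:3 series) was added at 4 s, EC20 acetylcholine at 144 s and EC80 at 230 s. PAM activity is the concentration-dependent rise in the EC20 response, fitted with a four-parameter logistic.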

SMILES	EC50	Emax
O=C(N[C@@H]1CCOC1)c1cc(Cc2ccc(-c3cncs3)cc2)c2sccc2n1 [Compound 400]	4.21 µM	51.4%
O=C(NC1CC(F)C1)c1cc(Cc2ccc(-c3cncs3)cc2)c2sccc2n1 (stereo not drawn) [Compound 401, N-(3-fluorocyclobutyl)-7-[(4-thiazol-5-ylphenyl)methyl]thieno[3,2-b]pyridine-5-carboxamide]	4.57 µM	40.5%
O=C(NC1COC1)c1cc(Cc2ccc(-c3cncs3)cc2)c2sccc2n1 [Compound 402, N-(oxetan-3-yl)-7-[(4-thiazol-5-ylphenyl)methyl]thieno[3,2-b]pyridine-5-carboxamide]	> 10 µM	41.7%
COCCNC(=O)c1cc(Cc2ccc(-c3cncs3)cc2)c2sccc2n1 [Compound 403, N-(2-methoxyethyl)-7-[(4-thiazol-5-ylphenyl)methyl]thieno[3,2-b]pyridine-5-carboxamide]	6.98 µM	60.8%
COCCCNC(=O)c1cc(Cc2ccc(-c3cncs3)cc2)c2sccc2n1 [Compound 404, N-(3-methoxypropyl)-7-[(4-thiazol-5-ylphenyl)methyl]thieno[3,2-b]pyridine-5-carboxamide]	3.57 µM	56.7%
O=C(N[C@H]1CC[C@@H]1O)c1cc(Cc2ccc(-c3cncs3)cc2)c2sccc2n1 [Compound 405]	0.428 µM	73.5%
COCC(C)NC(=O)c1cc(Cc2ccc(-c3cncs3)cc2)c2sccc2n1 (stereo not drawn) [Compound 406, N-(2-methoxy-1-methyl-ethyl)-7-[(4-thiazol-5-ylphenyl)methyl]thieno[3,2-b]pyridine-5-carboxamide]	5.05 µM	59.1%
O=C(NC1CCOCC1)c1ccc(Cc2cc(C(=O)NC3CCOCC3)nc3ccsc23)cc1 [Compound 407, N-tetrahydropyran-4-yl-7-[[4-(tetrahydropyran-4-ylcarbamoyl)phenyl]methyl]thieno[3,2-b]pyridine-5-carboxamide]	0.368 µM	69.9%
O=C(NC1CC(F)(F)C1)c1ccc(Cc2cc(C(=O)NC3CC(F)(F)C3)nc3ccsc23)cc1 [Compound 408, N-(3,3-difluorocyclobutyl)-7-[[4-[(3,3-difluorocyclobutyl)carbamoyl]phenyl]methyl]thieno[3,2-b]pyridine-5-carboxamide]	0.397 µM	45%
CC1(C)CC(NC(=O)c2ccc(Cc3cc(C(=O)NC4CCOC(C)(C)C4)nc4ccsc34)cc2)CCO1 (stereo not drawn) [Compound 409, N-(2,2-dimethyltetrahydropyran-4-yl)-7-[[4-[(2,2-dimethyltetrahydropyran-4-yl)carbamoyl]phenyl]methyl]thieno[3,2-b]pyridine-5-carboxamide]	0.725 µM	68.8%
Cn1ccc(-c2ccc(Cc3cc(C(=O)N[C@@H]4COCC[C@H]4O)nc4ccsc34)cn2)n1 [Compound 410]	0.0562 µM	63.4%
Cn1ccc(-c2ccc(Cc3cc(C(=O)N[C@H]4CCCCC[C@@H]4O)nc4ccsc34)cn2)n1 [Compound 411]	0.077 µM	57.6%
Cn1ccc(-c2ccc(Cc3cc(C(=O)N[C@@H]4CC[C@H]4O)nc4ccsc34)cn2)n1 [Compound 412]	0.222 µM	69.1%
Cn1ccc(-c2ccc(Cc3cc(C(=O)NC[C@H]4CCCO4)nc4ccsc34)cn2)n1 [Compound 413, 7-[[6-(1-methylpyrazol-3-yl)-3-pyridyl]methyl]-N-[[(2R)-tetrahydrofuran-2-yl]methyl]thieno[3,2-b]pyridine-5-carboxamide]	0.191 µM	72.5%
Cn1ccc(-c2ccc(Cc3cc(C(=O)NC[C@@H]4CCCO4)nc4ccsc34)cn2)n1 [Compound 414, 7-[[6-(1-methylpyrazol-3-yl)-3-pyridyl]methyl]-N-[[(2S)-tetrahydrofuran-2-yl]methyl]thieno[3,2-b]pyridine-5-carboxamide]	0.703 µM	71.5%
Cn1ccc(-c2ccc(Cc3cc(C(=O)NC4COC4)nc4ccsc34)cn2)n1 [Compound 415]	8.35 µM	63%
COCCNC(=O)c1cc(Cc2ccc(-c3ccn(C)n3)nc2)c2sccc2n1 [Compound 416, N-(2-methoxyethyl)-7-[[6-(1-methylpyrazol-3-yl)-3-pyridyl]methyl]thieno[3,2-b]pyridine-5-carboxamide]	1.29 µM	71.4%
Cn1ccc(-c2ccc(Cc3cc(C(=O)N[C@H]4CCOC4)nc4ccsc34)cn2)n1 [Compound 417, 7-[[6-(1-methylpyrazol-3-yl)-3-pyridyl]methyl]-N-[(3S)-tetrahydrofuran-3-yl]thieno[3,2-b]pyridine-5-carboxamide]	4.65 µM	66.6%

Now from value to molecule:

EC50	Emax	SMILES
5.13 µM	67%	Cn1ccc(-c2ccc(Cc3cc(C(=O)N[C@@H]4CCOC4)nc4ccsc34)cn2)n1 [Compound 418, 7-[[6-(1-methylpyrazol-3-yl)-3-pyridyl]methyl]-N-[(3R)-tetrahydrofuran-3-yl]thieno[3,2-b]pyridine-5-carboxamide]
0.76 µM	70.1%	Cn1ccc(-c2ccc(Cc3cc(C(=O)NC4CC(F)C4)nc4ccsc34)cn2)n1 (stereo not drawn) [Compound 419, N-(3-fluorocyclobutyl)-7-[[6-(1-methylpyrazol-3-yl)-3-pyridyl]methyl]thieno[3,2-b]pyridine-5-carboxamide]
0.4 µM	64.2%	Cn1ccc(-c2ccc(Cc3cc(C(=O)NC4CC(F)(F)C4)nc4ccsc34)cn2)n1 [Compound 420, N-(3,3-difluorocyclobutyl)-7-[[6-(1-methylpyrazol-3-yl)-3-pyridyl]methyl]thieno[3,2-b]pyridine-5-carboxamide]
0.422 µM	66.9%	Cn1ccc(-c2ccc(Cc3cc(C(=O)NCC4CCN4)nc4ccsc34)cn2)n1 (stereo not drawn) [Compound 421, N-(azetidin-2-ylmethyl)-7-[[6-(1-methylpyrazol-3-yl)-3-pyridyl]methyl]thieno[3,2-b]pyridine-5-carboxamide]
1.62 µM	71.6%	Cn1ccc(-c2ccc(Cc3cc(C(=O)N[C@H]4CCCOC4)nc4ccsc34)cn2)n1 [Compound 422, 7-[[6-(1-methylpyrazol-3-yl)-3-pyridyl]methyl]-N-[(3S)-tetrahydropyran-3-yl]thieno[3,2-b]pyridine-5-carboxamide]
0.637 µM	70.6%	Cn1ccc(-c2ccc(Cc3cc(C(=O)N[C@@H]4CCCOC4)nc4ccsc34)cn2)n1 [Compound 423]
8.47 µM	68.6%	COCC(C)NC(=O)c1cc(Cc2ccc(-c3ccn(C)n3)nc2)c2sccc2n1 (stereo not drawn) [Compound 424, N-(2-methoxy-1-methyl-ethyl)-7-[[6-(1-methylpyrazol-3-yl)-3-pyridyl]methyl]thieno[3,2-b]pyridine-5-carboxamide]
5.14 µM	65.8%	Cn1ccc(-c2ccc(Cc3cc(C(=O)NC4CN(C5COC5)C4)nc4ccsc34)cn2)n1 [Compound 425]
0.29 µM	62.7%	Cn1ccc(-c2ccc(Cc3cc(C(=O)NC[C@@H]4CCCN4)nc4ccsc34)cn2)n1 [Compound 426]
0.316 µM	64.6%	Cn1ccc(-c2ccc(Cc3cc(C(=O)NC[C@H]4CCCN4)nc4ccsc34)cn2)n1 [Compound 427]
1.89 µM	70.2%	CCN1CCC[C@H]1CNC(=O)c1cc(Cc2ccc(-c3ccn(C)n3)nc2)c2sccc2n1 [Compound 428]
0.597 µM	72.7%	COCCNC(=O)c1cc(Cc2ccc(-n3cccn3)cc2)c2sccc2n1 [Compound 429, N-(2-methoxyethyl)-7-[(4-pyrazol-1-ylphenyl)methyl]thieno[3,2-b]pyridine-5-carboxamide]
1.08 µM	72.9%	COCCCNC(=O)c1cc(Cc2ccc(-n3cccn3)cc2)c2sccc2n1 [Compound 430, N-(3-methoxypropyl)-7-[(4-pyrazol-1-ylphenyl)methyl]thieno[3,2-b]pyridine-5-carboxamide]
1.48 µM	69.3%	COC1CC(NC(=O)c2cc(Cc3ccc(-n4cccn4)cc3)c3sccc3n2)C1 (stereo not drawn) [Compound 431, N-(3-methoxycyclobutyl)-7-[(4-pyrazol-1-ylphenyl)methyl]thieno[3,2-b]pyridine-5-carboxamide]
3.42 µM	47.5%	O=C(NC1CN(CC(F)(F)F)C1)c1cc(Cc2ccc(-n3cccn3)cc2)c2sccc2n1 [Compound 432]
1.77 µM	65.4%	O=C(NC1CN(C2COC2)C1)c1cc(Cc2ccc(-n3cccn3)cc2)c2sccc2n1 [Compound 433, N-[1-(oxetan-3-yl)azetidin-3-yl]-7-[(4-pyrazol-1-ylphenyl)methyl]thieno[3,2-b]pyridine-5-carboxamide]
1.46 µM	66.2%	CC(C)(C)N1CC(NC(=O)c2cc(Cc3ccc(-n4cccn4)cc3)c3sccc3n2)C1 [Compound 434, N-(1-tert-butylazetidin-3-yl)-7-[(4-pyrazol-1-ylphenyl)methyl]thieno[3,2-b]pyridine-5-carboxamide]
2.29 µM	76.9%	CN1CC(NC(=O)c2cc(Cc3ccc(-n4cccn4)cc3)c3sccc3n2)C1 [Compound 435, N-(1-methylazetidin-3-yl)-7-[(4-pyrazol-1-ylphenyl)methyl]thieno[3,2-b]pyridine-5-carboxamide]
